Data taken from paper PMC11249977, “Investigating Penetration and Antimicrobial Activity of Vector-Bicycle Conjugates” (ACS Infectious Diseases, 2024).
In brackets after ≈: the same amount, converted by molar mass. Where two headings read alike, the source gives them in different places. Non-standard residues stand in square brackets, D forms with d. Residues, ends and D or L forms follow the SMILES beside them. Dap(N3) = [N-]=[N+]=NC[C@H](N)C(=O)O

Tested on: E. coli (ATCC25922)
Type: cell-based, Escherichia coli
Conditions: for MIC (μg/ml), repeat 1 / MIC (μg/ml), repeat 2 / MIC (μg/ml), repeat 3: ATCC25922
Source text: To determine how the cell killing ability of the vector-Bicycle variants changed when compared to the original vector, their antimicrobial activity was examined against a clinical strain of E. coli (ATCC25922) in cation-adjusted Mueller Hinton broth (CaMHB). The minimum inhibitory concentration (MIC) is defined as the lowest concentration of compound that completely prevents bacterial growth (Table 2). The unconjugated Bicycle molecule (AB1) and the original unconjugated vector (AV1) were used to make the MAP-Bicycle conjugate A1. All MAP-Bicycle conjugates contain the AB1 Bicycle molecule, linked to a variant of the original MAP (e.g., C2, S2, H6). The unconjugated MAP variants are labeled with the equivalent letter and number but with a “V” included in the name (e.g., CV2, SV2, HV6, see Table 1 for all vector variants).
Bacterial stock was streaked onto LB agar plates and incubated at 37 °C for 16–18 h. Using a sterile swab, single colonies were picked and resuspended in 2 mL of 0.9% saline solution, visually matching the turbidity of a 0.5 McFarland standard and having an OD600 nm of 0.18–0.25 (which corresponds to […]). The suspension was diluted 200-fold in cation-adjusted Mueller–-Hinton Broth (Ca-MHB), and 100 μL of the diluted culture was pipetted in wells of a 96-well plate containing 100 μL of a 2-factor dilution series of a compound per row of wells. The plate was incubated at 37 °C for 19 h. Afterward, the OD600 nm of each well was read using a Pherastar FSX plate reader. MIC values were determined, with the MIC being the lowest concentration of the compound at which growth was absent (i.e., OD600 nm was equivalent to no growth, as observed in carbenicillin control wells). This was also verified visually. […]

[1] = E. coli ATCC25922, CaMHB, 37 °C, 19 h, OD600 nm read, range of at least 3 biological repeats

| Compound | MIC (ATCC25922, 19 h) | MIC [1] | MIC (μg/ml), repeat 1 | MIC (μg/ml), repeat 2 | MIC (μg/ml), repeat 3 |
| --- | --- | --- | --- | --- | --- |
| CC(C)C[C@@H](NC(=O)[C@@H](CCCNC(=N)N)NC(=O)[C@@H](CCCNC(=N)N)NC(=O)[C@H](NC(=O)[C@@H](Cc1c[nH]c2ccccc12)NC(=O)[C@@H](CCCNC(=N)N)NC(=O)[C@@H](CCCNC(=N)N)NC(=O)[C@@H](Cc1c[nH]c2ccccc12)NC(=O)[C@@H](CCCNC(=N)N)NC(=O)[C@@H](N)CN=[N+]=[N-])C(C)C)C(=O)N[C@H](CO)C(=O)N[C@H](CCCCN)C(N)=O [CV2] (H-[Dap(N3)][dR][dW][dR][dR][dW][dV][dR][dR][dL][dS][dK]-NH2; N-terminus and C-terminus assumed) | 9.4 µM | 16 µg/mL |  |  |  |
| CC(C)C[C@@H](NC(=O)[C@@H](CCCNC(=N)N)NC(=O)[C@@H](CCCNC(=N)N)NC(=O)[C@H](NC(=O)[C@@H](Cc1c[nH]c2ccccc12)NC(=O)[C@@H](CCCNC(=N)N)NC(=O)[C@@H](CO)NC(=O)[C@@H](CCCNC(=N)N)NC(=O)[C@@H](CCCNC(=N)N)NC(=O)[C@@H](N)CN=[N+]=[N-])C(C)C)C(=O)N[C@H](CO)C(=O)N[C@H](CCCCN)C(N)=O [CV1] (H-[Dap(N3)][dR][dR][dS][dR][dW][dV][dR][dR][dL][dS][dK]-NH2; N-terminus and C-terminus assumed) | >39.7 µM |  | > 64 µg/mL | > 64 µg/mL | > 64 µg/mL |
| CC(C)C[C@@H](NC(=O)[C@@H](CCCNC(=N)N)NC(=O)[C@@H](CCCNC(=N)N)NC(=O)[C@H](NC(=O)[C@@H](CCCNC(=N)N)NC(=O)[C@@H](CCCNC(=N)N)NC(=O)[C@@H](CO)NC(=O)[C@@H](Cc1c[nH]c2ccccc12)NC(=O)[C@@H](CCCNC(=N)N)NC(=O)[C@@H](N)CN=[N+]=[N-])C(C)C)C(=O)N[C@H](CO)C(=O)N[C@H](CCCCN)C(N)=O [CV3] (H-[Dap(N3)][dR][dW][dS][dR][dR][dV][dR][dR][dL][dS][dK]-NH2; N-terminus and C-terminus assumed) | >39.7 µM |  | > 64 µg/mL | > 64 µg/mL | > 64 µg/mL |
| CAzal - dR dW dS dR dW dV dR dR dL dR dK – CONH2 [CV6, standalone MAP vector variant of AV1, single arginine substitution] |  | 16 µg/mL |  |  |  |
| CC(C)C[C@@H](NC(=O)[C@@H](CCCNC(=N)N)NC(=O)[C@@H](CCCNC(=N)N)NC(=O)[C@H](NC(=O)[C@@H](Cc1c[nH]c2ccccc12)NC(=O)[C@@H](CCCNC(=N)N)NC(=O)[C@@H](CCCNC(=N)N)NC(=O)[C@@H](CCCNC(=N)N)NC(=O)[C@@H](CCCNC(=N)N)NC(=O)[C@@H](N)CN=[N+]=[N-])C(C)C)C(=O)N[C@H](CO)C(=O)N[C@H](CCCCN)C(N)=O [CV8] (H-[Dap(N3)][dR][dR][dR][dR][dW][dV][dR][dR][dL][dS][dK]-NH2; N-terminus and C-terminus assumed) |  |  | 64 µg/mL (≈ 38.1 µM) | 64 µg/mL (≈ 38.1 µM) | > 64 µg/mL |
| CC(C)C[C@@H](NC(=O)[C@@H](CCCNC(=N)N)NC(=O)[C@@H](CCCNC(=N)N)NC(=O)[C@@H](CCCNC(=N)N)NC(=O)[C@@H](Cc1c[nH]c2ccccc12)NC(=O)[C@@H](CCCNC(=N)N)NC(=O)[C@@H](CO)NC(=O)[C@@H](Cc1c[nH]c2ccccc12)NC(=O)[C@@H](CCCNC(=N)N)NC(=O)[C@@H](N)CN=[N+]=[N-])C(=O)N[C@H](CO)C(=O)N[C@H](CCCCN)C(N)=O [CV4] (H-[Dap(N3)][dR][dW][dS][dR][dW][dR][dR][dR][dL][dS][dK]-NH2; N-terminus and C-terminus assumed) | 18.8 µM | 32 µg/mL |  |  |  |
| CC(C)C[C@@H](NC(=O)[C@@H](CCCNC(=N)N)NC(=O)[C@@H](CCCNC(=N)N)NC(=O)[C@H](NC(=O)[C@@H](Cc1c[nH]c2ccccc12)NC(=O)[C@@H](CCCNC(=N)N)NC(=O)[C@@H](CO)NC(=O)[C@@H](Cc1c[nH]c2ccccc12)NC(=O)[C@@H](CCCNC(=N)N)NC(=O)[C@@H](N)CN=[N+]=[N-])C(C)C)C(=O)N[C@H](CO)C(=O)N[C@H](CCCCN)C(N)=O [AV1] (H-[Dap(N3)][dR][dW][dS][dR][dW][dV][dR][dR][dL][dS][dK]-NH2; N-terminus and C-terminus assumed) | 19.5 µM | 32 µg/mL |  |  |  |
| CC(C)[C@@H](NC(=O)[C@@H](Cc1c[nH]c2ccccc12)NC(=O)[C@@H](CCCNC(=N)N)NC(=O)[C@@H](CO)NC(=O)[C@@H](Cc1c[nH]c2ccccc12)NC(=O)[C@@H](CCCNC(=N)N)NC(=O)[C@@H](N)CN=[N+]=[N-])C(=O)N[C@H](CCCNC(=N)N)C(=O)N[C@H](CCCNC(=N)N)C(=O)N[C@H](CCCNC(=N)N)C(=O)N[C@H](CO)C(=O)N[C@H](CCCCN)C(N)=O [CV5] (H-[Dap(N3)][dR][dW][dS][dR][dW][dV][dR][dR][dR][dS][dK]-NH2; N-terminus and C-terminus assumed) | 19 µM | 32 µg/mL |  |  |  |
| CAzal - dR dW dS dR dW dV dR dR dR dR dK – CONH2 [CV12, standalone MAP vector variant of AV1, double arginine substitution] |  | 16 µg/mL |  |  |  |
